Measured values from patent US12503484B2, “Androstane derivatives with activity as pure or predominantly pure stimulators of SERCA2a for the treatment of heart failure” (Seismic Pharmaceuticals, priority 2019, dated 2025).
Read-outs that look alike come from different tables or passages of the source.

Experiments:
STZ diabetic rats = experiment: Haemodynamics in streptozotocin diabetic rats (echocardiography); type: in vivo, rat
Description: CVie214 and CVie216 were tested in a diabetic rat model. Briefly, rats were injected with streptozotocin (STZ). After 7-9 weeks from STZ injection, rats were submitted to transthoracic echocardiographic and Doppler evaluation performed under urethane anesthesia. Two-dimensionally guided M-mode recordings were used to obtain short-axis measurements of left ventricular end-diastolic diameter (LVEDD), left ventricular end-systolic diameter (LVESD), posterior (PW) and septal (SW) diastolic wall thickness according to the American Society of Echocardiography guidelines (Lang R M et al., Eur J Echocardiography 2006, 7:79-108). Fractional shortening was calculated as FS=(LVEDD−LVESD)/LVEDD. Relative wall thickness was calculated as PWTd+IVSTd/LVEDD. Mitral inflow was measured by pulsed Doppler at the tips of mitral leaflets from an apical 4-chamber view to obtain early and late filling velocities (E, A) and deceleration time of early filling velocity (DT). The deceleration slope was calculated as E/DT ratio. The mitral deceleration index was calculated as DT/E ratio. Tissue Doppler Imaging (TDI) was evaluated from the apical 4-chamber view to record septal mitral annular movements, i.e., peak myocardial systolic (s′) and early and late diastolic velocity (e′ and a′).
After baseline hemodynamic measurements were taken, the rats were administered Digoxin, CVie214, CVie216 and compared to control. Digoxin, used as reference drug, was intravenously infused at 0.11 mg/kg/min for 15 min and echocardiographic parameters measured after 1 h. CVie214-salt and CVie216-salt were intravenously infused in STZ diabetic rats at 0.2 mg/kg/min and echocardiographic parameters were measured after 15 min and 30 min.
Tables 4-6 show the haemodynamic parameters in STZ diabetic rats for Digoxin, CVie214-salt, and Cvie216-salt.

[1] = molecular target: dog renal Na^+/K^+ ATPase (Canis lupus familiaris (Dog) (Canis familiaris), UniProt P50997); conditions: read-out: IC50 inhibition of dog renal Na+/K+ ATPase; purified dog kidney enzyme;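 also: enzyme preincubated with inhibitor 10 min at 37 °C, then K^+ and ^32P-ATP added for 15 min, released ^32P counted, activity relative to untreated control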
SERCA2a = SERCA2a (Cavia porcellus, UniProt A0A286XD73); conditions: literature; cited from earlier work
SERCA2a, sequence (A0A286XD73 1-997): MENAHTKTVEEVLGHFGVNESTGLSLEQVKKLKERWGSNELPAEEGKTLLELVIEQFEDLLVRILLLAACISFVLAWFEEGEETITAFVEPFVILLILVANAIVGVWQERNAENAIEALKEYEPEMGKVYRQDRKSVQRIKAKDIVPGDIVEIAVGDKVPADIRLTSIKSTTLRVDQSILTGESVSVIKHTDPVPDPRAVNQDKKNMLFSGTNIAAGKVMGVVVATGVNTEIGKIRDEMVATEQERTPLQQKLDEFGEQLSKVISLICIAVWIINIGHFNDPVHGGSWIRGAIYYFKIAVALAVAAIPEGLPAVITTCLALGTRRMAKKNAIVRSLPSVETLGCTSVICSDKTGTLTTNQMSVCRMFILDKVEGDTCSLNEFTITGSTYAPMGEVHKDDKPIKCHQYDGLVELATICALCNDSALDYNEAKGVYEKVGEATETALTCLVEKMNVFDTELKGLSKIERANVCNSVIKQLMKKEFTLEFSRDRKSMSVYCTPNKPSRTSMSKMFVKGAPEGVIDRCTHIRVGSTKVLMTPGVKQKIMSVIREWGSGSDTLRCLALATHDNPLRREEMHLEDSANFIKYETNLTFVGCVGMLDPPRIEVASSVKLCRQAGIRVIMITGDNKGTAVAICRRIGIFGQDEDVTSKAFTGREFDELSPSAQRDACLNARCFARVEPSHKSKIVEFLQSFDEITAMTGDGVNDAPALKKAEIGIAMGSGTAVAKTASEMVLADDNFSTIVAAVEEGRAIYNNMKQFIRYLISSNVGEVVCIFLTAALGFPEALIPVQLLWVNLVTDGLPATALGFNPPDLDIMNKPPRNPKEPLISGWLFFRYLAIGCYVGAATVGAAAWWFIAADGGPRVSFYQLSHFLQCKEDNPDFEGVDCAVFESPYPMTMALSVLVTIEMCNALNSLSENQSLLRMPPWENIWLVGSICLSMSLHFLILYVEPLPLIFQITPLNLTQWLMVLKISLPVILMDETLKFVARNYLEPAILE

[2] = system: rat ventricular myocytes isolated from STZ rats; conditions: literature; cited from earlier work
[3] = system: mouse (Albino Swiss CD-1); conditions: data from literature, cited from earlier work
[4] = after 15 min Digoxin IV infusion 0.11 mg/kg/min

Structure (SMILES): C[C@H]1O[C@@H](O[C@H]2[C@@H](O)C[C@H](O[C@H]3[C@@H](O)C[C@H](O[C@H]4CC[C@@]5(C)[C@H](CC[C@@H]6[C@@H]5C[C@@H](O)[C@]5(C)[C@@H](C7=CC(=O)OC7)CC[C@]65O)C4)O[C@@H]3C)O[C@@H]2C)C[C@H](O)[C@@H]1O [Digoxin, reference compound]
- diastolic function (in words) (STZ diabetic rats; IV infusion): ameliorated diastolic function
- overall cardiac function, SV and CO (in words) (STZ diabetic rats; IV infusion): did not affect
- A late filling velocity of mitral inflow (STZ diabetic rats; [4]): 0.79 ± 0.19 m/s
- CO cardiac output (STZ diabetic rats; [4]): 155.6 ± 45.7 mL/min
- DT deceleration time of E wave (STZ diabetic rats; [4]): 44.1 ± 10.29 ms
- DT/E mitral deceleration index (STZ diabetic rats; [4]): 50.18 ± 17.05 s2/m
- E early filling velocity of mitral inflow (STZ diabetic rats; [4]): 0.92 ± 0.19 m/s
- E/A index of LV function (STZ diabetic rats; [4]): 1.20 ± 0.21
- E/DT deceleration slope (STZ diabetic rats; [4]): 22.66 ± 9.56 m/s2
- E/e′ index of LV filling pressure (STZ diabetic rats; [4]): 38.95 ± 7.31
- FS fractional shortening (STZ diabetic rats; [4]): 53.1 ± 5.6*6%
- HR heart rate (STZ diabetic rats; [4]): 257 ± 36 beat/min
- SV stroke volume (STZ diabetic rats; [4]): 0.6 ± 0.12 ml/beat
- a′ TDI late relaxation velocity (STZ diabetic rats; [4]): 29.78 ± 6.17 cm/s
- e′ TDI early relaxation velocity (STZ diabetic rats; [4]): 23.82 ± 2.87 cm/s
- s′ TDI contraction velocity (STZ diabetic rats; [4]): 26.03 ± 4.66 cm/s
- IC50 [1]: 180 nM
- stimulation of SERCA2a activity (in words) (SERCA2a): failed to stimulate
- effect detected by the SR loading protocol [2]: did not detect any effect
- LD50 ([3]; iv): 7.7 mg/kg
- LD50 ([3]; os): 17.8 mg/kg
